The source of these data is patent publication US10590113B2, “6-hydroxy-4-oxo-1,4-dihydropyrimidine-5-carboxamides as APJ agonists” (priority 2016, dated 2020).

For this experiment, the target named is T1, human APJ receptor (Homo sapiens, UniProt P35414).
T1 construct: expressed in transfected cells; host or cells: HEK293
T1 sequence (P35414 1-380): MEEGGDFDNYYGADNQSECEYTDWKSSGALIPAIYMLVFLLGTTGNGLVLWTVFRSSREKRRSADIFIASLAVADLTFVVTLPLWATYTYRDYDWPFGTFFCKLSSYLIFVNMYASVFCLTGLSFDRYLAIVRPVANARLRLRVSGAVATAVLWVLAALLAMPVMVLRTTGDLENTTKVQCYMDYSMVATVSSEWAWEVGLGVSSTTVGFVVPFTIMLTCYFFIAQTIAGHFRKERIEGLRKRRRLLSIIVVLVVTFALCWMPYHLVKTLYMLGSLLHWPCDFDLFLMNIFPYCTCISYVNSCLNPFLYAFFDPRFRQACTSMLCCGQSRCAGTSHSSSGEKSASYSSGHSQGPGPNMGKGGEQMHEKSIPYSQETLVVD
As to the kind of experiment: Intracellular cAMP Accumulation Assay (APJ hcAMP, HTRF). In kind it is cell-based. As to conditions: human APJ, intracellular cAMP accumulation; read-out: hAPJ cAMP EC50 Potency range. The method, then:
Intracellular cAMP Accumulation Assay
HEK293 cells stably expressing human APJ receptor were used to assess the activity of compounds. Cultured cells were detached and resuspended in the cAMP
Homogeneous Time-Resolved Fluorescence (HTRF) assay buffer (Cisbio cat; #62AM4PEJ). The assay was performed in 384-well assay plates (Perkin-Elmer; cat #6008289) according to assay protocol provided by the manufacturer. Serial dilutions of a compound together with assay buffer containing […] IBMX and 2 μM forskolin were added to each well containing 5,000 cells and incubated for 30 minutes at room temperature. Subsequently, cAMP D2 reagent was added in the lysis buffer followed by the EuK antibody (Cisbio; cat #62AM4PEJ) and incubated for 60 min. The fluorescence emission ratio was measured using fluorometer. The intracellular cAMP concentrations (compound-stimulated inhibition of forskolin-mediated cAMP production) were calculated by extrapolation from a standard curve using known cAMP concentrations. The EC50 values were obtained by fitting the data to a sigmoidal concentration-response curve with variable slope.
The EC50 value of each compound is presented at the end of the example description.
The biological activity of the exemplified compounds of this invention determined by the assay described above is shown at the end of each example.

SMILES strings stand for the structures.

As a reminder, the EC50 is the concentration giving half of the maximal effect.

On to `COc1cccc(OC)c1-n1c(COC(C)C)nc(=O)c(C(=O)N2CCC(c3ccccc3C(F)(F)F)C2)c1O` (single isomer, unassigned) [Example 101, 1-(2,6-dimethoxyphenyl)-6-hydroxy-2-[(propan-2-yloxy)methyl]-5-{3-[2-(trifluoromethyl)phenyl]pyrrolidine-1-carbonyl}-1,4-dihydropyrimidin-4-one], for which the 50% effective concentration (EC50) fell in the range of 0.01 to 10 nM.

On to `COc1cccc(OC)c1-n1c(COC(C)C)nc(=O)c(C(=O)N2CCC(c3ccc(F)cc3)C2)c1O` (single isomer, unassigned) [Example 102, 1-(2,6-dimethoxyphenyl)-5-[3-(4-fluorophenyl)pyrrolidine-1-carbonyl]-6-hydroxy-2-[(propan-2-yloxy)methyl]-1,4-dihydropyrimidin-4-one], for which the EC50 was in the range of 0.01 to 10 nM.

`COc1cccc(OC)c1-n1c(COC2CC2)nc(=O)c(C(=O)N2CCC(c3ccc(F)cc3)C2)c1O` (single isomer, unassigned) [Example 103, 2-(cyclopropoxymethyl)-1-(2,6-dimethoxyphenyl)-5-[3-(4-fluorophenyl)pyrrolidine-1-carbonyl]-6-hydroxy-1,4-dihydropyrimidin-4-one]: the EC50 fell in the range of 0.01 to 10 nM.

Take `COc1cccc(OC)c1-n1c(COC(C)C)nc(=O)c(C(=O)N2CCC(c3ccccc3C)C2)c1O` (single isomer, unassigned) [Example 105, 1-(2,6-dimethoxyphenyl)-6-hydroxy-5-[3-(2-methylphenyl)pyrrolidine-1-carbonyl]-2-[(propan-2-yloxy)methyl]-1,4-dihydropyrimidin-4-one]: the EC50 fell in the range of 0.01 to 10 nM.

`COc1cccc(OC)c1-n1c(COC(C)C)nc(=O)c(C(=O)N2CCC(c3ccc(C#N)cc3)C2)c1O` (single isomer, unassigned) [Example 107, 4-{1-[1-(2,6-dimethoxyphenyl)-6-hydroxy-4-oxo-2-[(propan-2-yloxy)methyl]-1,4-dihydropyrimidine-5-carbonyl]pyrrolidin-3-yl}benzonitrile]: the EC50 lay in the range of 0.01 to 10 nM.

Take `COc1cccc(OC)c1-n1c(COC(C)C)nc(=O)c(C(=O)N2CCC(c3ccc(C#N)cc3)C2)c1O` (single isomer, unassigned) [Example 108, 4-{1-[1-(2,6-dimethoxyphenyl)-6-hydroxy-4-oxo-2-[(propan-2-yloxy)methyl]-1,4-dihydropyrimidine-5-carbonyl]pyrrolidin-3-yl}benzonitrile]: the EC50 was 0.01 to 10 nM.

Regarding `CCCCc1nc(=O)c(C(=O)N2CCC(c3cccc(F)c3)C2)c(O)n1[C@@H](CC)c1ccccc1` (single isomer, unassigned) [Example 115], the EC50 lay in the range of 0.01 to 10 nM.

On to `CCCCc1nc(=O)c(C(=O)N2CCC(c3cccc(F)c3)C2)c(O)n1[C@@H](CC)c1ccccc1` (single isomer, unassigned) [Example 119], for which the EC50 lay within 0.01 to 10 nM.

For the compound `COc1ccccc1C1CCN(C(=O)c2c(O)n(-c3c(OC)cccc3OC)c(COC(C)C)nc2=O)C1` (single isomer, unassigned) [Example 160, 1-(2,6-dimethoxyphenyl)-6-hydroxy-5-[3-(2-methoxyphenyl)pyrrolidine-1-carbonyl]-2-[(propan-2-yloxy)methyl]-1,4-dihydropyrimidin-4-one], the half-maximal effective concentration (EC50) was in the range of 0.01 to 10 nM.

Consider `COc1ccccc1C1CCN(C(=O)c2c(O)n(-c3c(OC)cccc3OC)c(COC(C)C)nc2=O)C1` (single isomer, unassigned) [Example 161, 1-(2,6-dimethoxy-phenyl)-6-hydroxy-5-[3-(2-methoxy-phenyl)pyrrolidine-1-carbonyl]-2-[(propan-2-yloxy)methyl]-1,4-dihydropyrimidin-4-one], for which the EC50 lay within 0.01 to 10 nM.

`COc1cccc(OC)c1-n1c(COC(C)C)nc(=O)c(C(=O)N2CCC(c3ccc(F)cc3F)C2)c1O` (single isomer, unassigned) [Example 162, 5-[3-(2,4-difluorophenyl)pyrrolidine-1-carbonyl]-1-(2,6-dimethoxyphenyl)-6-hydroxy-2-[(propan-2-yloxy)methyl]-1,4-dihydropyrimidin-4-one]: the EC50 was in the range of 0.01 to 10 nM.

For `COc1cccc(OC)c1-n1c(COC(C)C)nc(=O)c(C(=O)N2CCC(c3ccc(F)cc3F)C2)c1O` (single isomer, unassigned) [Example 163, 5-[3-(2,4-difluorophenyl)pyrrolidine-1-carbonyl]-1-(2,6-dimethoxyphenyl)-6-hydroxy-2-[(propan-2-yloxy)methyl]-1,4-dihydropyrimidin-4-one], the EC50 lay in the range of 0.01 to 10 nM.

As for `COc1cccc(OC)c1-n1c(COC(C)C)nc(=O)c(C(=O)N2CCC(c3c(F)cccc3F)C2)c1O` (single isomer, unassigned) [Example 164, 5-[3-(2,6-difluorophenyl)pyrrolidine-1-carbonyl]-1-(2,6-dimethoxyphenyl)-6-hydroxy-2-[(propan-2-yloxy)methyl]-1,4-dihydropyrimidin-4-one], the EC50 lay in the range of 0.01 to 10 nM.

Take `COc1cccc(OC)c1-n1c(COC(C)C)nc(=O)c(C(=O)N2CCC(c3ccccc3C#N)C2)c1O` (single isomer, unassigned) [Example 165, 2-{1-[1-(2,6-dimethoxyphenyl)-6-hydroxy-4-oxo-2-[(propan-2-yloxy)methyl]-1,4-dihydropyrimidine-5-carbonyl]pyrrolidin-3-yl}benzonitrile]: the EC50 fell in the range of 0.01 to 10 nM.

Turning to `COc1cccc(OC)c1-n1c(COC(C)C)nc(=O)c(C(=O)N2CCC(c3c(F)cccc3F)C2)c1O` (single isomer, unassigned) [Example 166, 5-[3-(2,6-difluorophenyl)pyrrolidine-1-carbonyl]-1-(2,6-dimethoxyphenyl)-6-hydroxy-2-[(propan-2-yloxy)methyl]-1,4-dihydropyrimidin-4-one], the EC50 lay in the range of 0.01 to 10 nM.

For `COc1cccc(OC)c1-n1c(COC(C)C)nc(=O)c(C(=O)N2CCC(c3ccccc3C#N)C2)c1O` (single isomer, unassigned) [Example 167], the concentration for a half-maximal effect (EC50) lay within 0.01 to 10 nM.

Regarding `COc1cccc(OC)c1-n1c(CCC2CC2)nc(=O)c(C(=O)N2CCC(c3ncc(F)cc3F)C2)c1O` (single isomer, unassigned) [Example 168, 2-(2-cyclopropylethyl)-5-[3-(3,5-difluoropyridin-2-yl)pyrrolidine-1-carbonyl]-1-(2,6-dimethoxyphenyl)-6-hydroxy-1,4-dihydropyrimidin-4-one], the EC50 fell in the range of 0.01 to 10 nM.

`COc1cccc(OC)c1-n1c(CCC2CC2)nc(=O)c(C(=O)N2CCC(c3ncc(F)cc3F)C2)c1O` (single isomer, unassigned) [Example 169, 2-(2-cyclopropylethyl)-5-[3-(3,5-difluoropyridin-2-yl)pyrrolidine-1-carbonyl]-1-(2,6-dimethoxyphenyl)-6-hydroxy-1,4-dihydropyrimidin-4-one]: the EC50 lay in the range of 0.01 to 10 nM.

Consider `COc1cccc(OC)c1-n1c(CCC2CC2)nc(=O)c(C(=O)N2CCC(c3ccc(Cl)cn3)C2)c1O` (single isomer, unassigned) [Example 170, 5-[3-(5-chloropyridin-2-yl)pyrrolidine-1-carbonyl]-2-(2-cyclopropylethyl)-1-(2,6-dimethoxyphenyl)-6-hydroxy-1,4-dihydropyrimidin-4-one], for which the EC50 fell in the range of 0.01 to 10 nM.

Take `COc1cccc(OC)c1-n1c(CCC2CC2)nc(=O)c(C(=O)N2CCC(c3ccc(Cl)cn3)C2)c1O` (single isomer, unassigned) [Example 171, 5-[3-(5-chloropyridin-2-yl)pyrrolidine-1-carbonyl]-2-(2-cyclopropylethyl)-1-(2,6-dimethoxyphenyl)-6-hydroxy-1,4-dihydropyrimidin-4-one]: the EC50 fell in the range of 0.01 to 10 nM.

As for `COc1cccc(OC)c1-n1c(CCC2CC2)nc(=O)c(C(=O)N2CCC(c3ccc(F)cn3)C2)c1O` (single isomer, unassigned) [Example 175, 2-(2-cyclopropylethyl)-1-(2,6-dimethoxyphenyl)-5-[3-(5-fluoropyridin-2-yl)pyrrolidine-1-carbonyl]-6-hydroxy-1,4-dihydropyrimid in-4-one], the EC50 lay within 0.01 to 10 nM.

Consider `COc1cccc(OC)c1-n1c(CCC2CC2)nc(=O)c(C(=O)N2CCC(c3ncc(Cl)cc3F)C2)c1O` (single isomer, unassigned) [Example 176, 5-[3-(5-chloro-3-fluoropyridin-2-yl)pyrrolidine-1-carbonyl]-2-(2-cyclopropylethyl)-1-(2,6-dimethoxyphenyl)-6-hydroxy-1,4-dihydropyrimidin-4-one], for which the EC50 was in the range of 0.01 to 10 nM.

As for `COc1cccc(OC)c1-n1c(CCC2CC2)nc(=O)c(C(=O)N2CCC(c3ccc(F)cn3)C2)c1O` (single isomer, unassigned) [Example 177, 2-(2-cyclopropylethyl)-1-(2,6-dimethoxyphenyl)-5-[3-(5-fluoropyridin-2-yl)pyrrolidine-1-carbonyl]-6-hydroxy-1,4-dihydropyrimidin-4-one], the EC50 lay in the range of 0.01 to 10 nM.
